Source: US20250281424A1 (New York Blood Center, Inc, priority 2020, published 2025)

Target: T1, human PF4 (Homo sapiens, UniProt P02776)
T1 construct: PF4 is a 70 amino acid, lysine-rich 7.8 kDa platelet-specific protein; made in house; host or cells: Escherichia coli BL21DE3 pLysS (pT7-7) and/or Drosophila S2 cells
T1 sequence (P02776 32-101): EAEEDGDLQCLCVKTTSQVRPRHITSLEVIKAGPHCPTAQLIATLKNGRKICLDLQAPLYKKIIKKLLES
Test: Inhibition of PF4 tetramer formation (BS3 cross-linking, SDS-PAGE)
Assay type: biochemical
Details: for inhibition at 5 µM: 5 μM inhibitor; for inhibition at 5 µM / inhibition at 10 µM / inhibition at 1 µM / inhibition at 3 µM: read-out: % inhibition of PF4 tetramer formation at single concentration of inhibitor; for inhibition at 10 µM: 10 μM inhibitor (column A); for IC50: read-out: IC50 of PF4 tetramer formation inhibition; for inhibition at 1 µM: 1 μM inhibitor; for inhibition at 3 µM: 3 μM inhibitor (column A)
Description: Compounds of Examples 1-38, 65-301, 303, 305, 307, 309, 311, 313, 314, 316, and 318-404 were tested using SDS PAGE analysis of BS3 crosslinked PF4 for their ability to prevent PF4 tetramer formation. […] See, Suvarna et al., Throm. Res, 122:211-220 (2008), which is hereby incorporated by reference, at least for a detailed description of this technique.
cDNA encoding human PF4 was cloned into the plasmid μMT/BiPN5-His A (Invitrogen Corp., Carlsbad CA) for expression in the Drosophila Expression System (Invitrogen, Carlsbad, CA). Cloning was performed using Bg1 II and Age I cloning sites. A hexanucleotide encoding Bg1 II site was then eliminated by site-directed mutagenesis so that the expressed protein contained full-length wild type (wt) PF4 or PF4^K50E with an identical sequence as their counterparts expressed in E. coli. See, method described in Sachais et al (Sachais, B. S. et al. (2012). Blood 119(25): 5955-5961). PF4 expression was induced by adding copper sulfate (0.5 mM). The induced S2 cells were incubated in serumfree Insect-Xpress™ media (Lonza, Walkersville, MD) for 3-5 days; supernatants were collected, sodium azide (0.02% final concentration) and EDTA (2.5 mM final concentration) were added, and the media were filtered through an Express® PLUS 0.22 μm filter (Millipore Corp., Billerica, MA).
Wild-type (WT) human PF4 in the pT7-7 vector (Novagen, Madison, WI) was expressed in the Escherichia coli strain BL21DE30 pLysS (Stratagene, La Jolla, CA), and purified and characterized as described by Rauova et al. (Rauova, L. et al. (2006). Blood 107(6): 2346-2353) and Park et al., (Blood, 75:1290-1295 (1990)), which are hereby incorporated by reference. Briefly, recombinant protein was isolated from the supernatant of the bacterial lysate by affinity chromatography using a HiTrap high-performance (HP) affinity column. WT PF4 was purified from the media on a heparin HiTrap® column on an ÄTKAPrime™ system (GE Healthcare) at 4° C. in Tris (10 mM), EDTA (1 mM), and pH 8 buffer. Media was loaded in buffer containing NaCl (0.5 M) and PF4 was eluted at 1.8 M NaCl using a linear gradient. Fractions containing purified PF4 as detected by silver staining of 12% NuPAGE Bis-Tris gels (Invitrogen) were pooled, concentrated and buffer exchanged into 50 mM HEPES, 0.5 M NaCl, pH—7.2 using an Amicon® Ultra centrifugal filter (3K NMWL, Millipore Corp). Protein was quantified using a BCA assay.
Compounds of Examples 1-38, 65-196, and 209-228 were then tested for their ability to inhibit PF4 tetramer formation using a cross-linking assay as described in Rauova cited above. Specifically, hPF4 (10 μg/ml) in phosphate-buffered saline (PBS) was incubated at 37° C. for 15 min in the absence of the antagonistic compounds (control sample) and presence of compounds. Cross-linking and SDS-PAGE analysis were then performed as described in “Analysis of PF4 multimerization” of Rauova. The relative amounts of PF4 in each of the monomer, dimer, trimer and tetramer form were calculated by analyzing the samples on a 12% SDS-polyacrylamide gel under reducing conditions. Bands were quantified using the Kodak ID Image Analysis system (Kodak, Rochester, NY). The SigmaMarker™ reagent served as the molecular weight standard. Data was compiled and bar graphed as % PF4 for the tetramer, trimer, dimer, and monomer as a function of concentration for the test and control samples.
This experiment was performed in a manner similar to experiment 1, but PF4 (10 μg/ml) in PBS was independently incubated with compounds of Examples 1-38, 65-196, and 209-228 for 60 min at room temperature, followed by the addition of cross-linking reagent bis(sulfosuccinimidyl)suberate (0.2 mM) for 30 min at room temperature. The reaction was stopped by adding NuPAGE® lithium dodecyl sulfate (LDS) sample buffer, and denatured by heating to 70° C. for 10 min according to the manufacturer's instructions. […]

| inhibition at 5 µM [%] | inhibition at 10 µM [%] | IC50 [nM] | Compound | inhibition at 1 µM [%] | inhibition at 3 µM [%] |
| --- | --- | --- | --- | --- | --- |
| 76 | 91 | 2500 | COC(=O)N1CCC[C@H]1C(=O)C1C(=O)c2ccc(C(=O)c3ccc4c(c3)C(=O)C(C(=O)[C@@H]3CCCN3C(=O)OC)C4=O)cc2C1=O (stereo partly drawn) [Example 114, methyl (2S)-2-(5-{2-[(2S)-1-(methoxycarbonyl)pyrrolidine-2-carbonyl]-1,3-dioxo-2,3-dihydro-1H-indene-5-carbonyl}-1,3-dioxo-2,3-dihydro-1H-indene-2-carbonyl)pyrrolidine-1-carboxylate] | – | – |
| – | – | – | CC(C)[C@@H](N)C(=O)C1C(=O)c2ccc(S(=O)(=O)c3ccc4c(c3)C(=O)C(C(=O)[C@H](N)C(C)C)C4=O)cc2C1=O (stereo partly drawn) [Example 353, 2-[(2R)-2-amino-3-methylbutanoyl]-5-({2-[(2R)-2-amino-3-methylbutanoyl]-1,3-dioxo-2,3-dihydro-1H-inden-5-yl}sulfonyl)-2,3-dihydro-1H-indene-1,3-dione] | 22 | 37 |
| 91 | 95 | 1200 | COC(=O)[C@@H]1C[C@H]1C(=O)C1C(=O)c2ccc(C(=O)c3ccc4c(c3)C(=O)C(C(=O)[C@@H]3C[C@H]3C(=O)OC)C4=O)cc2C1=O (stereo partly drawn) [Example 217, methyl (1R,2R)-2-(5-{2-[(1R,2R)-2-(methoxycarbonyl)cyclopropanecarbonyl]-1,3-dioxo-2,3-dihydro-1H-indene-5-carbonyl}-1,3-dioxo-2,3-dihydro-1H-indene-2-carbonyl)cyclopropane-1-carboxylate] | – | – |
| 16 | 74 | – | O=C1CC(=O)c2cc(C(c3ccc4c(c3)C(=O)CC4=O)(C(F)(F)F)C(F)(F)F)ccc21 [Example 13, 5-(2,2,2-trifluoro-1-(5-indan-1,3-dionyl)-1-trifluoromethyl-ethyl)-indan-1,3-dione] | – | – |
| – | – | ~4000 | O=C(NC1CC1)C1C(=O)c2ccc(Oc3ccc4c(c3)C(=O)C(C(=O)NC3CC3)C4=O)cc2C1=O (centres unmarked) [Example 106, N-cyclopropyl-5-{[2-(cyclopropylcarbamoyl)-1,3-dioxo-2,3-dihydro-1H-inden-5-yl]oxy}-1,3-dioxo-2,3-dihydro-1H-indene-2-carboxamide] | – | – |
| – | – | – | CC(=O)NCCCC(=O)C1C(=O)c2ccc(Oc3ccc4c(c3)C(=O)C(C(=O)CCCNC(C)=O)C4=O)cc2C1=O (centres unmarked) [Example 265, N-[4-(5-{[2-(4-acetamidobutanoyl)-1,3-dioxo-2,3-dihydro-1H-inden-5-yl]oxy}-1,3-dioxo-2,3-dihydro-1H-inden-2-yl)-4-oxobutyl]acetamide] | 18 | 34 |
| – | – | – | CC(C)(C)OC(=O)NCCCC(=O)C1C(=O)c2ccc(C(=O)c3ccc4c(c3)C(=O)C(C(=O)CCCNC(=O)OC(C)(C)C)C4=O)cc2C1=O (centres unmarked) [Example 386, tert-butyl N-(4-{5-[2-(4-{[(tert-butoxy)carbonyl]amino}butanoyl)-1,3-dioxo-2,3-dihydro-1H-indene-5-carbonyl]-1,3-dioxo-2,3-dihydro-1H-inden-2-yl}-4-oxobutyl)carbamate] | 13 | 34 |
| – | – | – | O=C(c1ccc2c(c1)C(=O)C(C(=O)C1CCC1)C2=O)c1ccc2c(c1)C(=O)C(C(=O)C1CCC1)C2=O (centres unmarked) [Example 299, 2-cyclobutanecarbonyl-5-(2-cyclobutanecarbonyl-1,3-dioxo-2,3-dihydro-1H-indene-5-carbonyl)-2,3-dihydro-1H-indene-1,3-dione] | 32 | 56 |
| – | – | – | CC(C)(C)OC(=O)NCCC(=O)C1C(=O)c2ccc(C(=O)c3ccc4c(c3)C(=O)C(C(=O)CCNC(=O)OC(C)(C)C)C4=O)cc2C1=O (centres unmarked) [Example 268, tert-butyl N-(3-{5-[2-(3-{[(tert-butoxy)carbonyl]amino}propanoyl)-1,3-dioxo-2,3-dihydro-1H-indene-5-carbonyl]-1,3-dioxo-2,3-dihydro-1H-inden-2-yl}-3-oxopropyl)carbamate] | 7 | 25 |
| – | – | – | CC(C)(C)OC(=O)N1CC[C@H](C(=O)C2C(=O)c3ccc(S(=O)(=O)c4ccc5c(c4)C(=O)C(C(=O)[C@H]4CCN(C(=O)OC(C)(C)C)C4)C5=O)cc3C2=O)C1 (stereo partly drawn) [Example 374, tert-butyl (3S)-3-[5-({2-[(3S)-1-[(tert-butoxy)carbonyl]pyrrolidine-3-carbonyl]-1,3-dioxo-2,3-dihydro-1H-inden-5-yl}sulfonyl)-1,3-dioxo-2,3-dihydro-1H-indene-2-carbonyl]pyrrolidine-1-carboxylate] | 22 | 49 |
| – | – | – | CN(CC(=O)C1C(=O)c2ccc(C#Cc3ccc4c(c3)C(=O)C(C(=O)CN(C)C(=O)OC(C)(C)C)C4=O)cc2C1=O)C(=O)OC(C)(C)C (centres unmarked) [Example 320, tert-butyl N-[2-(5-{2-[2-(2-{[(tert-butoxy)carbonyl](methyl)amino}acetyl)-1,3-dioxo-2,3-dihydro-1H-inden-5-yl]ethynyl}-1,3-dioxo-2,3-dihydro-1H-inden-2-yl)-2-oxoethyl]-N-methylcarbamate] | 12 | 26 |
| 80 | 71 | – | CCCCc1ccc(NC(=O)C2C(=O)c3ccc(C(=O)c4ccc5c(c4)C(=O)C(C(=O)Nc4ccc(CCCC)cc4)C5=O)cc3C2=O)cc1 (centres unmarked) [Example 101, N-(4-butylphenyl)-5-{2-[(4-butylphenyl)carbamoyl]-1,3-dioxo-2,3-dihydro-1H-indene-5-carbonyl}-1,3-dioxo-2,3-dihydro-1H-indene-2-carboxamide] | – | – |
| 60 | 65 | – | Cc1ccc(NC(=O)C2C(=O)c3ccc(S(=O)(=O)c4ccc5c(c4)C(=O)C(C(=O)Nc4ccc(C)cc4)C5=O)cc3C2=O)cc1 (centres unmarked) [Example 92, N-(4-methylphenyl)-5-({2-[(4-methylphenyl)carbamoyl]-1,3-dioxo-2,3-dihydro-1H-inden-5-yl}sulfonyl)-1,3-dioxo-2,3-dihydro-1H-indene-2-carboxamide] | – | – |

| Compound | inhibition at 5 µM [%] | inhibition at 10 µM [%] | IC50 [nM] | inhibition at 1 µM [%] | inhibition at 3 µM [%] |
| --- | --- | --- | --- | --- | --- |
| O=C(CC1CC1)C1C(=O)c2ccc(S(=O)(=O)c3ccc4c(c3)C(=O)C(C(=O)CC3CC3)C4=O)cc2C1=O (centres unmarked) [Example 149, 2-(2-cyclopropylacetyl)-5-{[2-(2-cyclopropylacetyl)-1,3-dioxo-2,3-dihydro-1H-inden-5-yl]sulfonyl}-2,3-dihydro-1H-indene-1,3-dione] | 64 | 53 | – | – | – |
